target: T1, hTSHR (Homo sapiens, UniProt P16473); assay: hTSHR TR-FRET cAMP Assay (inhibition of M22-stimulated cAMP production); format: cell-based; conditions: not given
T1 construct: expressed in transfected cells
Description: Assays were performed using Expi293F Inducible cells (Invitrogen) stably expressing hTSHR via a pcZeo TetO DNA plasmid. Cell lines were maintained in suspension in Expi293 Expression Medium (ThermoFisher Scientific) supplemented with 10 µg/mL Blasticidin and 10 μg/mL Zeocin and incubated at 37° C., 8% CO2, with shaking. hTSHR cells were incubated overnight at 32° C., 5% C02, with shaking, but […] Doxycycline. Assay-ready aliquots were prepared by harvesting each cell type separately 24-hours post-induction. Cells were pelleted at 4° C., resuspended in Expi293 Expression media+10% DMSO, aliquoted, and kept frozen at −80° C. until ready for use.
For the assay, concentration-response curves of test and reference compounds were added to 384-well plates using an Echo 650 liquid handler (Beckman Coulter) and backfilled with DMSO to a final concentration of 0.5%. cAMP was measured using the cisbio cAMP Gs dynamic HTRF kit (PerkinElmer) according to manufacturer instructions. Aliquots of frozen hTSHR cells were quickly thawed and washed with phosphate-buffered saline (Sigma-Aldrich) to remove media and DMSO. The cells were resuspended in kit-supplied Stimulation Buffer at 0.8×10^6 cells/mL. 7.5 μL of the hTSHR cell dilution were added to each well of the assay plate and incubated with the compounds for 15 minutes in a 37 C, 0% CO2 incubator. 2.5 μL of Vehicle control or an EC80 concentration of recombinant human anti-TSHR antibody (M22, Creative Biolabs) was added to stimulate cAMP production. Cells were incubated with for 30 minutes at 37° C., 0% CO2. Following this incubation, the cells were lysed and accumulated cAMP was detected through the addition of kit-supplied lysis buffer containing d2-reagent and Eu-cryptate antibody. The HTRF signal was quantified using a BMG Clariostar plate reader optimized for HTRF assays. The HTRF ratio was determined by dividing the signal output at […] by that at 620 nm. Data were normalized to the signal produced by the EC80 concentration of either M22 or FSH (0% inhibition) and vehicle (no agonist, 100% inhibition).

T1 sequence (P16473 21-764): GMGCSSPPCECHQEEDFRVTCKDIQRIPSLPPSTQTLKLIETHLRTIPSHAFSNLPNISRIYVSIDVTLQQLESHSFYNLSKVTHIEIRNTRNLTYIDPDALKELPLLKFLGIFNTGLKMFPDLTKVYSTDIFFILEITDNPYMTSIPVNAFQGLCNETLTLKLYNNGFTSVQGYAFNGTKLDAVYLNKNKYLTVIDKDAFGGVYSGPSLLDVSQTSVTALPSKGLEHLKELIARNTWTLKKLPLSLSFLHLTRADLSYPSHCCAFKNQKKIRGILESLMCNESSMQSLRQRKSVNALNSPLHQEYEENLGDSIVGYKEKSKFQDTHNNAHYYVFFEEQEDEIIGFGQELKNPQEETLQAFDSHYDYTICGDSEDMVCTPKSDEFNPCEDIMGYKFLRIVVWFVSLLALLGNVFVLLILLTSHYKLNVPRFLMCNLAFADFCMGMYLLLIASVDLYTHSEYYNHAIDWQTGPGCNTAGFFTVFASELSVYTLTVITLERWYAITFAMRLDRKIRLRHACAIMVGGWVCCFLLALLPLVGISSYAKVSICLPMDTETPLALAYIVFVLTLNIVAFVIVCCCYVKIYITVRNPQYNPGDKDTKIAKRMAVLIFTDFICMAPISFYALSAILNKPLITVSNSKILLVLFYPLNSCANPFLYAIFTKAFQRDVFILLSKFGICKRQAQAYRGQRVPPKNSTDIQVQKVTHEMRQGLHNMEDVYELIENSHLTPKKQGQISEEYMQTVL

SMILES | IC50 [nM]
C[C@@H](c1cccc(-c2ccccc2)c1)n1c(=O)cnc2cc(NC(=O)NC(C)(C)C)ccc21 [Example 112, (S)-1-(1-(1-([1,1′-biphenyl]-3-yl)ethyl)-2-oxo-1,2-dihydroquinoxalin-6-yl)-3-(tert-butyl)urea] | 100 to 1000

same assay, conditions: Expi293F Inducible cells stably expressing hTSHR; cAMP HTRF; stimulated with EC80 of anti-TSHR antibody M22; 15 min compound preincubation, 30 min at 37° C.; read-out: Activity (IC50 bins)

SMILES | IC50 [nM]
C[C@H](c1nccc(C(F)(F)F)n1)N1C(=O)[C@@H](C)Oc2cc(NC(=O)NC(C)(C)C)ccc21 [Example 317, 1-(tert-butyl)-3-((R)-2-methyl-3-oxo-4-((R)-1-(4-(trifluoromethyl)pyrimidin-2-yl)ethyl)-3,4-dihydro-2H-benzo[b][1,4]oxazin-7-yl)urea] | 100 to 1000
CC(c1cc(C(F)(F)F)ccn1)n1c(=O)cnc2cc(NC(=O)NC3(C)CCC3)ccc21 (stereo not shown) [Example 337, 1-(1-methylcyclobutyl)-3-(2-oxo-1-(1-(4-(trifluoromethyl)pyridin-2-yl)ethyl)-1,2-dihydroquinoxalin-6-yl)urea] | 100 to 1000
C[C@@H](c1cccc(OC(F)(F)F)c1)n1c(=O)cnc2cc(NC(=O)NC3(C(F)(F)F)CCC3)ccc21 [Example 214, (S)-1-(2-oxo-1-(1-(3-(trifluoromethoxy)phenyl)ethyl)-1,2-dihydroquinoxalin-6-yl)-3-(1-(trifluoromethyl)cyclobutyl)urea] | 100 to 1000
C[C@@H]1Cc2cc(NC(=O)NC(C)(C)C)c(F)cc2N(Cc2ccccc2)C1=O (single isomer, unassigned) [Example 334] | > 1000
C[C@H]1Oc2cc(NC(=O)NC(C)(C)C)ccc2N(Cc2csc(C(F)(F)F)n2)C1=O [Example 165, (R)-1-(tert-butyl)-3-(2-methyl-3-oxo-4-((2-(trifluoro-methyl)thiazol-4-yl)methyl)-3,4-dihydro-2H-benzo [b][1,4]oxazin-7-yl)urea] | 100 to 1000
CC(C)(C)NC(=O)Nc1ccc2c(c1)OC(C)(C)C(=O)N2Cc1ccccc1 [Example 292, 1-(4-benzyl-2,2-dimethyl-3-oxo-3,4-dihydro-2H-benzo[b][1,4]oxazin-7-yl)-3-(tert-butyl)urea] | > 1000
C[C@H]1Oc2cc(NC(=O)NC3(C)CCCC3)ccc2N(Cc2cccc(C(F)(F)F)n2)C1=O [Example 227, (R)-1-(2-methyl-3-oxo-4-((6-(trifluoromethyl)pyridin-2-yl)methyl)-3,4-dihydro-2H-benzo[b][1,4]oxazin-7-yl)-3-(1-methylcyclopentyl) urea] | < 100
CC(C)(C)NC(=O)Nc1ccc2c(c1)ncc(=O)n2Cc1cccc(CCCC(F)(F)F)n1 [Example 95, 1-(tert-butyl)-3-(2-oxo-1-((6-(4,4,4-trifluoro-butyl)pyri-din-2-yl)methyl)-1,2-dihydro-quinoxalin-6-yl)urea] | 100 to 1000
C[C@@H](c1cccc(OC(F)(F)F)c1)n1c(=O)cnc2cc(NC(=O)NC(C)(C)C)c(F)cc21 [Example 339, (S)-1-(tert-butyl)-3-(7-fluoro-2-oxo-1-(1-(3-(trifluoromethoxy)phenyl)ethyl)-1,2-dihydroquinoxalin-6-yl)urea] | 100 to 1000
C[C@H]1Oc2cc(NC(=O)NC(C)(C)C)ccc2N([C@@H](C)c2ccccc2Cl)C1=O [Example 189, 1-(tert-butyl)-3-((R)-4-((S)-1-(2-chlorophenyl)ethyl)-2-methyl-3-oxo-3,4-dihydro-2H-benzo[b][1,4]oxazin-7-yl)urea] | < 100
C[C@@H](c1cccc(N(C)C)n1)n1c(=O)cnc2cc(NC(=O)NC(C)(C)C)ccc21 [Example 145, (S)-1-(tert-butyl)-3-(1-(1-(6-(dimethyl-amino)pyridin-2-yl)ethyl)-2-oxo-1,2-dihydroquinoxalin-6-yl)urea] | 100 to 1000
CC(C)(CO)CNC(=O)Nc1ccc2c(c1)ncc(=O)n2Cc1cccc(OC(F)(F)F)c1 [Example 242, 1-(3-hydroxy-2,2-dimethylpropyl)-3-(2-oxo-1-(3-(trifluoromethoxy)benzyl)-1,2-dihydroquinoxalin-6-yl)urea] | > 1000
CC(C)(C)NC(=O)Nc1cc2c(cc1C#N)N(Cc1ccccc1)C(=O)CC2 [Example 270, 1-(1-benzyl-7-cyano-2-oxo-3,4-dihydroquinolin-6-yl)-3-tert-butylurea] | > 1000
CC(C)(C)NC(=O)Nc1ccc2c(c1)CCC(=O)N2Cc1cc(Cl)cc(Cl)c1 [Example 25, 1-(tert-butyl)-3-(1-(3,5-dichlorobenzyl)-2-oxo-1,2,3,4-tetrahydroquinolin-6-yl) urea] | < 100
C[C@@H](c1cccc(CC(F)(F)F)n1)n1c(=O)cnc2cc(NC(=O)NC(C)(C)C)ccc21 [Example 150, (S)-1-(tert-butyl)-3-(2-oxo-1-(1-(6-(2,2,2-trifluoroethyl)pyridin-2-yl)ethyl)-1,2-dihydroquinoxalin-6-yl)urea] | 100 to 1000
C[C@@H](c1cccc(OC(F)(F)F)c1)n1c(=O)cnc2cc(NC(=O)NC3(C(F)(F)F)CCCC3)ccc21 [Example 217] | 100 to 1000
C[C@@H](c1ccccc1)N1C(=O)CCc2cc(NC(=O)NC(C)(C)C)c(C(F)(F)F)cc21 [Example 343, (S)-1-(tert-butyl)-3-(2-oxo-1-(1-phenylethyl)-7-(trifluoromethyl)-1,2,3,4-tetrahydroquinolin-6-yl) urea] | < 100
CC(c1cccc(CCOCc2ccncc2)c1)n1c(=O)cnc2cc(NC(=O)NC(C)(C)C)ccc21 (stereo not shown) [Example 250, 1-(tert-butyl)-3-(2-oxo-1-(1-(3-(2-(pyridin-4-ylmethoxy)ethyl)phenyl)ethyl)-1,2-dihydro-quinoxalin-6-yl)urea] | > 1000
Cc1cccc([C@H](C)N2C(=O)COc3cc(NC(=O)NC(C)(C)C)ccc32)c1 [Example 57, (S)-1-(tert-butyl)-3-(3-oxo-4-(1-(m-tolyl)ethyl)-3,4-dihydro-2H-benzo[b][1,4]oxazin-7-yl)urea] | < 100
C[C@@H](c1cccc(OC(F)F)c1)n1c(=O)cnc2cc(NC(=O)NC(C)(C)C)ccc21 [Example 128, (S)-1-(tert-butyl)-3-(1-(1-(3-(difluoromethoxy)phe-nyl)ethyl)-2-oxo-1,2-dihydroquinoxalin-6-yl)urea] | 100 to 1000
CC(C)(C)NC(=O)Nc1ccc2c(c1)CC(=O)N2Cc1ccccc1 [Example 31, 1-(1-benzyl-2-oxo-3H-indol-5-yl)-3-tert-butylurea] | > 1000
CC1CC(=O)N(Cc2ccccc2)c2ccc(NC(=O)NC(C)(C)C)cc21 (stereo not shown) [Example 15, 1-(1-benzyl-4-methyl-2-oxo-1,2,3,4-tetrahydroquinolin-6-yl)-3-(tert-butyl)urea] | > 1000
CC(C)(C)NC(=O)Nc1ccc2c(n1)CCC(=O)N2Cc1ccccc1 [Example 67, 1-(5-benzyl-6-oxo-5,6,7,8-tetrahydro-1,5-naphthyridin-2-yl)-3-(tert-butyl)urea] | 100 to 1000
C[C@H]1Oc2nc(NC(=O)NC(C)(C)C)ccc2N(Cc2cccc(Cl)c2)C1=O [Example 287, (R)-1-(tert-butyl)-3-(1-(3-chlorobenzyl)-3-methyl-2-oxo-2,3-dihydro-1H-pyrido[2,3-b][1,4]oxazin-6-yl)urea] | 100 to 1000
CC(C)(C)NC(=O)Nc1ccc2c(c1)CCC(=O)N2Cc1ccccc1 [Example 1, 1-(1-benzyl-2-oxo-1,2,3,4-tetrahydroquinolin-6-yl)-3-(tert-butyl)urea] | < 100
CC(C)(CF)NC(=O)Nc1ccc2c(c1)ncc(=O)n2Cc1ccccc1 [Example 195, 1-(1-benzyl-2-oxo-1,2-dihydroquinoxalin-6-yl)-3-(1-fluoro-2-methylpropan-2-yl)urea] | > 1000
C[C@@H](c1cc(OC(F)(F)F)ccn1)n1c(=O)cnc2cc(NC(=O)NC(C)(C)C)ccc21 [Example 129, (S)-1-(tert-butyl)-3-(2-oxo-1-(1-(4-(trifluoromethoxy)pyri-din-2-yl)ethyl)-1,2-dihydroquinoxalin-6-yl)urea] | > 1000
C[C@@H](c1cccc(C(F)(F)F)c1)N1C(=O)COc2cc(NC(=O)NC(C)(C)C)ccc21 [Example 62, (S)-1-(tert-butyl)-3-(3-oxo-4-(1-(3-(trifluoromethyl)phenyl)ethyl)-3,4-dihydro-2H-benzo[b][1,4]oxazin-7-yl)urea] | < 100
C[C@@H](c1ccccc1F)N1C(=O)CCc2cc(NC(=O)NC(C)(C)C)ccc21 [Example 58, 3-tert-butyl-1-{1-[(1S)-1-(2-fluorophenyl)ethyl]-2-oxo-3,4-dihydroquinolin-6-yl}urea] | < 100
CC(C)CCNC(=O)Nc1ccc2c(c1)ncc(=O)n2[C@@H](C)c1cccc(OC(F)(F)F)c1 [Example 207, (S)-1-isopentyl-3-(2-oxo-1-(1-(3-(trifluoromethoxy)phenyl)ethyl)-1,2-dihydroquinoxalin-6-yl)urea] | 100 to 1000

Reference: patent US20260365628A1, “SUBSTITUTED 3,4-DIHYDROQUINOLINONE INHIBITORS OF TSHR” (Septerna, Inc., priority 2022, published 2026)
